US7655752B2, “TNF-α converting enzyme inhibitory agents and method of using same” (The United States of America as represented by the …, priority 2003, dated 2010)
Ends that are not written are not given here.

Columns and labels:
[1] = tested on: recombinant human TACE (rhTACE); test: TACE-mediated cleavage of rhTNFR2:Fc model substrate (SDS-PAGE, silver staining, Western blot); format: biochemical; conditions: for inhibition of TACE-mediated cleavage of TNFR2:Fc: 80 μM peptide, silver staining
From the text: A model assay system was developed to assess the ability of N-TACE to inhibit TACE enzymatic activity. Recombinant human TACE (rhTACE), as well as the recombinant human TNFR1:Fc (rhTNFR1:Fc) and TNFR2:Fc (rhTNFR2:Fc) fusion proteins were purchased from R & D Systems (Minneapolis, Minn.). Both TNFR1:Fc and TNFR2:Fc are recombinant human chimeric proteins that encode the extracellular receptor domains, fused to a carboxy-terminal 6X-histidine-tagged Fc region of human IgG1 via a linker peptide (IEGRMD)(SEQ ID NO:1). Recombinant human TACE corresponds to the mature form following removal of the prodomain and has an apparent molecular weight of 70 kDa. N-TACE(18-54), which lacked the signal peptide, was synthesized by Sigma-Genosys (The Woodlands, Tex.). N-TACE truncation mutants were also synthesized; an amino-terminal mutant N-TACE(18-29) corresponded to N-TACE amino acids 18-29, a mid-domain mutant N-TACE(30-42) corresponded to N-TACE amino acids 30-42, a carboxy-terminal mutant N-TACE(43-54) corresponded to amino acids 43-54, and an extended mid-domain mutant N-TACE(30-48) corresponded to amino acids 30 to 48.
Chou Fasman analysis was performed using MacVector (Accelrys, Burlington, Mass.). Assays (50 μl) were performed in 50 mM Tris, 25 mM NaCl, pH 8.0 at 30° C. for 30 min. Samples were analyzed by SDS-PAGE using 4%-12% Bis-Tris Nupage gels (Invitrogen, Carlsbad, Calif.) and visualized with the SilverQuest Silver Staining Kit (Invitrogen, Carlsbad, Calif.). For Western blot analysis, samples were separated via SDS-PAGE, electroblotted onto nitrocellulose membranes, and incubated overnight (4° C.) with 200 ng/ml of a murine IgG1 monoclonal antibody directed against the histidine tag (Tetra-His, Qiagen, Valenica, Calif.). The antibody detected the carboxy-terminus of the recombinant human TNFR2:Fc fusion protein. A rabbit polyclonal antibody was also generated against N-TACE(18-54) (Sigma-Genosys, The Woodlands, Tex.) and was utilized for Western blotting at a 1:1000 dilution. Detection was by chemiluminescence using horseradish peroxidase-conjugated secondary antibodies.

[2] = tested on: TNFR2 shedding from U937 cells; test: TNFR2 shedding from U937 cells (sandwich ELISA of soluble TNFR2 in supernatants); format: cell-based; conditions: 40 μM, 24 hours
Experimental: (§1) The ability of N-TACE to inhibit TNFR2 shedding was tested in a cell-based system. U937 cells were obtained from ATCC (Manassas, Va.) and maintained in RPMI-1640 medium with 10% fetal bovine serum. For experiments, U937 cells were plated into 6 well plates at a density of 2×10^6 cells/ml. PMA was purchased from Sigma (St. Louis, Mo.). Release of TNFR2 into […] cell culture supernatants over a 24-hour period was assayed utilizing a sandwich ELISA with a sensitivity of 7.8 pg/ml (R & D Systems). Cellular apoptosis and necrosis were measured using the TACS Annexin V-FITC Apoptosis Detection Kit (R & D Systems, Minneapolis, Minn.) and a XL-MCL Flow Cytometer (Becman-Coulter, Miami, Fla.). Statistical analysis was performed by a paired Student's t test with a Bonferroni correction for multiple comparisons and by single factor ANOVA. Differences were considered significant at a P value <0.05.
(§2) The U937 monocytic cells were treated for 24 hours with either N-TACE(18-54) (0.04 to 40 μM), or a peptide corresponding to N-TACE amino acids 18-29 (40 μM). […] In contrast, N-TACE(18-29) had no effect on TNFR2 shedding as compared to cells treated with media alone (186.5±1.8 vs. 184.6±2.2, n=6, P=NS).

[3] = tested on: U937 cells; test: Cellular apoptosis and necrosis (Annexin V binding and propidium iodide uptake, flow cytometry); format: cell-based
Experimental: as §1, §2

[4] = 0.5 μM rhTACE, 0.95 μM TNFR2:Fc, 30 min

Compound | inhibition of TACE-mediated cleavage of TNFR2:Fc [1, 4] | also measured
CC(C)C[C@H](CC(=O)NO)C(=O)N[C@H](C(=O)N[C@@H](C)C(=O)NCCN)C(C)(C)C [TAPI-2, reference compound] | – | inhibition of TACE-mediated TNFR2 cleavage ([1]; 25 μM, 0.5 μM rhTACE, 0.95 μM TNFR2:Fc, 30 min): completely inhibited
N-TACE(18-29): amino-terminal truncation mutant corresponding to N-TACE amino acids 18-29 (PRPPDDPGFGPH) | none of the N-TACE truncation mutants (80 μM) inhibited | effect on TNFR2 shedding ([2]; compared to media alone): no effect
N-TACE(30-42): mid-domain truncation mutant corresponding to N-TACE amino acids 30-42 (QRLEKLDSLLSDY) | none of the N-TACE truncation mutants (80 μM) inhibited | –
N-TACE(30-48): extended mid-domain mutant, 19-amino acid leucine-rich peptide, amino acids 30 to 48; QRLEKLDSLLSDYDILSLS (listed as Homo sapiens) | inhibited | inhibition of TNFR2 shedding ([2]; compared to cells treated with media alone): about 16%
N-TACE(43-54): carboxy-terminal truncation mutant corresponding to amino acids 43-54 (DILSLSNIQQHS) | none of the N-TACE truncation mutants (80 μM) inhibited | –
N-TACE: 54 amino acid protein: first 54 amino acids of TACE, signal peptide plus amino-terminus of prodomain, SEQ ID NO:3 (MRQSLLFLTSVVPFVLAPRPPDDPGFGPHQRLEKLDSLLSDYDILSLSNIQQHS; listed as Homo sapiens) | – | inhibition of TACE-mediated cleavage of TNFR2:Fc (summary statement) ([1]; concentration not given): shown to inhibit
PRPPDDPGFGPHQRLEKLDSLLSDYDILSLSNIQQHS [N-TACE(18-54)] | – | apoptosis or necrosis as cause of decreased TNFR2 shedding [3]: not a consequence of either apoptosis or necrosis
vasoactive intestinal peptide (HSDAVFTDNYTRLRKQMAVKKYLNSILN) [VIP, irrelevant peptide purchased from Bachem, specificity control, reference compound] | neither α-defensin or VIP inhibited | –
